Consider one compound from ChEMBL document CHEMBL5344413, “Discovery of 4-(1,2,4-Oxadiazol-5-yl)azepan-2-one Derivatives as a New Class of Cannabinoid Type 2 Receptor Agonists for the Treatment of Inflammatory Pain” (J Med Chem, 2023).

Active and inactive are the calls of the source. Some results are limits rather than exact numbers.

A short description of series [1]: AUC(0 to infinity) in BALB/c mouse at 20 mg/kg, po. It counts as ADME, organism-based. On the set-up: dose 20 mg/kg, route po. The settings on record: in vivo.
A short description of series [2]: MRT(0 to t) in BALB/c mouse at 1 mg/kg, iv. The series is classed as ADME, organism-based. The conditions noted are these: in vivo.
For a further series, the system named is Mus musculus. Briefly: Antinociceptive activity against carrageenan-induced inflammatory C57BL/6 mouse model assessed as reduction in hyperalgesia by measuring increase in paw withdrawal threshold at 20 mg/kg, po measured at 5 hrs and 2 hrs following carrageenan and compound challenge respectively by plantar esthesiometer analysis. It counts as functional, organism-based.

The nature of series [3]: MRT(0 to t) in BALB/c mouse at 5 mg/kg, ip. The conditions noted are these: in vivo. It counts as ADME, organism-based.
Series [4] in a line: Metabolic stability of the compound in rat liver microsomes assessed as parent compound remaining at 10 uM measured after 60 mins. It counts as ADME, Microsome. The settings on record: read-out: Stability. On the technique in general: Liver microsomes are a subcellular fraction often used to study metabolism.
The species named for a further series is Homo sapiens. Briefly: Selectivity ratio of EC50 for agonist activity at human CB1 receptor expressed in CHO cells to EC50 for agonist activity at human CB2 receptor expressed in CHO cells. The series is classed as cell-based.
In another series the test system is CHO. Briefly: Induction of ERK1/2 phosphorylation in Chinese hamster CHO cells at 1000 nM measured after 15 mins by western blot analysis. The series is classed as cell-based. The conditions noted are these: Cricetulus griseus. For orientation: Immunoblotting shows a protein as a band on a membrane.
Series [5] is described as follows: Intrinsic clearance in mouse liver microsomes at 10 uM measured per mg protein. The conditions noted are these: read-out: CLH. The series is classed as ADME, Microsome.
Series [6] can be described thus: Half life in BALB/c mouse at 5 mg/kg, po. It counts as ADME, organism-based. The conditions noted are these: in vivo.
The nature of series [7]: AUC(0 to t) in BALB/c mouse at 1 mg/kg, iv. The conditions noted are these: in vivo. More on the design: dose 1 mg/kg, route iv. The series is classed as ADME, organism-based.
Series [8] is described as follows: Toxicity against C57BL/6 mouse assessed as induction of catalepsy at 20 mg/kg, ip measured within 4 hrs. It counts as organism-based. The conditions noted are these: in vivo.
The nature of series [9]: Intrinsic clearance in rat liver at 10 uM measured per kg body weight. The series is classed as ADME, tissue-based.
For another series, the target named is Cannabinoid receptor 2 (Homo sapiens, UniProt P34972). Briefly: Agonist activity at human CB2 receptor expressed in CHO cells assessed as inhibition of forskolin-stimulated intracellular cAMP accumulation measured after 30 mins by Glosensor assay relative to control. It counts as functional, cell-based. The conditions noted are these: filed as agonist.
Sequence of Cannabinoid receptor 2 (P34972 whole entry): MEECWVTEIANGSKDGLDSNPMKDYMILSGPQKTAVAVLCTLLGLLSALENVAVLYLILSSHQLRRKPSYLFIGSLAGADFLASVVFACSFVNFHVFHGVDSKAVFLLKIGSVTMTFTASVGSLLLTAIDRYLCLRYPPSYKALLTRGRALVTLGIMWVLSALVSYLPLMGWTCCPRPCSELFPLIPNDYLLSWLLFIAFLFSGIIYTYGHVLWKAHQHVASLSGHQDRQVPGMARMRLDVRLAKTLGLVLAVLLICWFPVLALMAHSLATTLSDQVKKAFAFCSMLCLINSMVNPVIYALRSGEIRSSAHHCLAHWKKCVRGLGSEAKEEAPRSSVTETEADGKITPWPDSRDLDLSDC

The term AUC(0-inf) denotes total exposure, with the tail of the curve extrapolated. A high value points to high exposure. As usually defined, the MRT last is the average time that molecules of a dose stay in the body. For orientation: half-life means the time in which the quantity being followed falls by half. By AUC(0-t) is commonly meant exposure summed from dosing to a finite time, without extrapolation to infinity. The low end stands for less exposure, the high end for more exposure. As usually defined, the Emax is the greatest response seen or fitted, relative to the assay's reference. The compound `O=C1CC(c2nc(-c3ccc(F)c4cn[nH]c34)no2)CCCN1c1ccc(F)cc1` (stereo not drawn) gave an AUC(0-inf) in series [1] of 18000 ng·h/mL. The MRT last in series [2] was found to be 49.8 min; in series [3], 103 min. In the series with Mus musculus, the outcome was Active. The remaining at 1 h, 10 µM in [4] was determined as 1.83%. In the series listed under Homo sapiens, the Ratio EC50 is over 1430. For the same compound, the outcome in the series on CHO was inactive. Also, the microsomal CLint at 10 µM in series [5] came to 106 µL/min/mg. In series [6], the half-life was 42 min. This compound gave an area under the curve AUC(0-t) in series [7] of 413 ng·h/mL. For the same compound, the Activity result in series [8] was “Non-Toxic”. For the same compound, the CLH in series [9] turned out to be 232 mL/min/kg. Also, the Emax at Cannabinoid receptor 2 is 87%.
